Laboratory results as given in patent US20020137929A1, “1 - (3-heterocyclylphenyl) isothiourea, -isourea, -guanidine and -amidine herbicidal agents” (Intellectual Property Department, BASF Aktiengesellschaft, priority 1998, published 2002).

What was measured:
[1] = tested on: TRZAWR (Wheat, Winter, cv Riband); test: Postemergence herbicidal evaluation; type: in vivo, Triticum aestivum; details: postemergence
How it was run: (§1)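 Young plants, roughly two weeks from seeding, receive the active ingredient as a sprayed dispersion (acetone/water 50/50, 0.5% TWEEN 20) at 40 psi. Doses span about 0.0156 to 0.500 kg/ha. A visual score from 0 to 9 compares treated with control plants four to five weeks on.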

ABUTH (Velvetleaf) = test: Preemergence herbicidal evaluation; type: in vivo, Abutilon theophrasti; details: rated 4-5 weeks after treatment; for ABUTH rating: preemergence, 0-9 scale
How it was run: (§2)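 Scores use a 0–9 visual scale covering stand, vigor, malformation, size and chlorosis relative to controls, rated four to five weeks after treatment. Before emergence, soil-planted seeds were sprayed with compound in aqueous acetone at roughly 0.0156–0.500 kg/ha and held in the greenhouse.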

ZEAMX (Corn, Field) = test: Preemergence herbicidal evaluation; type: in vivo, Zea mays; details: rated 4-5 weeks after treatment; for ZEAMX rating: preemergence, 0-9 scale
How it was run: as §2

CYPIR (Rice Flatsedge) = test: Preemergence weed control under flooded paddy conditions; type: in vivo, Cyperus iria; details: rated 3-4 weeks after treatment
How it was run: (§3)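 Visual injury scored 0-9 against control three to four weeks post-treatment, greenhouse-grown. Application: acetone/water (50/50) solutions dosed directly into flood water (1.5-3 cm over silt loam, planted top 0.5 cm), roughly 0.0313 to 0.500 kg/ha active ingredient.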

[2] = tested on: IPOHE (Morningglory, Ivyleaf); test: Postemergence herbicidal evaluation; type: in vivo, Ipomoea hederacea; details: postemergence
How it was run: as §1

SETVI (Foxtail, Green) [3] = test: Postemergence herbicidal evaluation; type: in vivo, Setaria viridis; details: postemergence
How it was run: as §1

ECHCG (Barnyardgrass) = test: Preemergence herbicidal evaluation; type: in vivo, Echinochloa crus-galli; details: rated 4-5 weeks after treatment; for ECHCG rating: preemergence, 0-9 scale
How it was run: as §2

SETVI (Foxtail, Green) [4] = test: Preemergence herbicidal evaluation; type: in vivo, Setaria viridis; details: rated 4-5 weeks after treatment; for SETVI rating: preemergence, 0-9 scale
How it was run: as §2

[5] = tested on: IPOHE (Morningglory, Ivyleaf); test: Preemergence herbicidal evaluation; type: in vivo, Ipomoea hederacea; details: rated 4-5 weeks after treatment; for IPOHE rating: preemergence, 0-9 scale
How it was run: as §2

MOOVA (Monochoria) = test: Preemergence weed control under flooded paddy conditions; type: in vivo, Monochoria vaginalis; details: rated 3-4 weeks after treatment
How it was run: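 Ratings on a 0-9 visual scale cover stand, vigor, malformation, size, chlorosis and overall appearance relative to a control, taken three to four weeks post-treatment. Application was into flood water over freshly sown silt loam at roughly 0.0313 to 0.500 kg/ha.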

GALAP (Galium) = test: Postemergence herbicidal evaluation; type: in vivo, Galium aparine; details: postemergence
How it was run: as §1

[6] = tested on: ECHORC (Watergrass (Calif.)); test: Preemergence weed control under flooded paddy conditions; type: in vivo, Echinochloa oryzoides; details: rated 3-4 weeks after treatment
How it was run: as §3

C=CCOC(=O)CN1C(=O)CSC1=Nc1cc(-n2c(=O)cc(C(F)(F)F)n(C)c2=O)c(F)cc1Cl [Compound 106, Allyl 2-{{2-chloro-5-[3,6-dihydro-3-methyl-2,6-dioxo-4-(trifluoromethyl)-1(2H)-pyrimidinyl]-4-fluorophenyl}imino}-4-oxo-3-thiazolidineacetate]
2.5: herbicidal rating TRZAWR ([1]; rate 0.0158 kg/ha) | ZEAMX rating (ZEAMX (Corn, Field); 0.0625 kg/ha) | IPOHE rating ([5]; 0.0313 kg/ha)
8.0: ABUTH rating (ABUTH (Velvetleaf); 0.0625 kg/ha)
5.0: Preemergence herbicidal rating ABUTH (ABUTH (Velvetleaf); rate 0.0156 kg/ha) | ZEAMX rating (ZEAMX (Corn, Field); 0.2500 kg/ha) | CYPIR herbicidal effect rating (CYPIR (Rice Flatsedge); 0.0313 kg/ha) | ECHORC herbicidal effect rating ([6]; 0.1250 kg/ha)
1.5: ECHCG rating (ECHCG (Barnyardgrass); 0.0625 kg/ha)
4.0: ZEAMX rating (ZEAMX (Corn, Field); 0.1250 kg/ha) | herbicidal rating SETVI (SETVI (Foxtail, Green) [3]; rate 0.0158 kg/ha) | ECHORC herbicidal effect rating ([6]; 0.0625 kg/ha)
9.0: ABUTH rating (ABUTH (Velvetleaf); 0.1250 kg/ha) | ABUTH rating (ABUTH (Velvetleaf); 0.2500 kg/ha) | CYPIR herbicidal effect rating (CYPIR (Rice Flatsedge); 0.2500 kg/ha) | herbicidal rating IPOHE ([2]; rate 0.0158 kg/ha) | herbicidal rating IPOHE ([2]; rate 0.0315 kg/ha) | herbicidal rating IPOHE ([2]; rate 0.0630 kg/ha) | herbicidal rating SETVI (SETVI (Foxtail, Green) [3]; rate 0.0630 kg/ha) | SETVI rating (SETVI (Foxtail, Green) [4]; 0.1250 kg/ha) | SETVI rating (SETVI (Foxtail, Green) [4]; 0.2500 kg/ha) | IPOHE rating ([5]; 0.2500 kg/ha) | MOOVA herbicidal effect rating (MOOVA (Monochoria); 0.0313 kg/ha) | MOOVA herbicidal effect rating (MOOVA (Monochoria); 0.0625 kg/ha) | MOOVA herbicidal effect rating (MOOVA (Monochoria); 0.1250 kg/ha) | MOOVA herbicidal effect rating (MOOVA (Monochoria); 0.2500 kg/ha)
0.0: Preemergence herbicidal rating ZEAMX (ZEAMX (Corn, Field); rate 0.0156 kg/ha) | Preemergence herbicidal rating ECHCG (ECHCG (Barnyardgrass); rate 0.0156 kg/ha) | Preemergence herbicidal rating SETVI (SETVI (Foxtail, Green) [4]; rate 0.0156 kg/ha)
4.5: herbicidal rating TRZAWR ([1]; rate 0.0630 kg/ha) | SETVI rating (SETVI (Foxtail, Green) [4]; 0.0625 kg/ha)
1.0: ZEAMX rating (ZEAMX (Corn, Field); 0.0313 kg/ha) | ECHCG rating (ECHCG (Barnyardgrass); 0.0313 kg/ha) | herbicidal rating GALAP (GALAP (Galium); rate 0.0158 kg/ha) | herbicidal rating GALAP (GALAP (Galium); rate 0.0315 kg/ha) | herbicidal rating GALAP (GALAP (Galium); rate 0.0630 kg/ha)
2.0: ECHCG rating (ECHCG (Barnyardgrass); 0.1250 kg/ha) | Preemergence herbicidal rating IPOHE ([5]; rate 0.0156 kg/ha) | ECHORC herbicidal effect rating ([6]; 0.0313 kg/ha)
7.5: IPOHE rating ([5]; 0.1250 kg/ha)
6.0: CYPIR herbicidal effect rating (CYPIR (Rice Flatsedge); 0.0625 kg/ha) | CYPIR herbicidal effect rating (CYPIR (Rice Flatsedge); 0.1250 kg/ha)
6.5: ABUTH rating (ABUTH (Velvetleaf); 0.0313 kg/ha)
0.5: SETVI rating (SETVI (Foxtail, Green) [4]; 0.0313 kg/ha)
3.0: herbicidal rating TRZAWR ([1]; rate 0.0315 kg/ha) | herbicidal rating SETVI (SETVI (Foxtail, Green) [3]; rate 0.0315 kg/ha)
7.0: ECHCG rating (ECHCG (Barnyardgrass); 0.2500 kg/ha) | IPOHE rating ([5]; 0.0625 kg/ha) | ECHORC herbicidal effect rating ([6]; 0.2500 kg/ha)
